Experimental data as given in ChEMBL document CHEMBL1201862, “PubChem BioAssay data set” (2004).
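These data come from cells grown in 96-well plates and exposed to compound for 48 hours at five concentrations. The concentration for 50% growth inhibition is given as GI50.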 Calls of active or inactive are those of the source. No stated cut-off is given here; in the data, active = GI50 up to about 1.1 µM and inactive = higher.

Experiments:
Assay in all cases: inhibition of tumour cell growth, NCI panel, 48 h
OVCAR-3 = system: OVCAR-3
SF-539 = system: SF-539
OVCAR-8 = system: OVCAR-8
HT-29 = system: HT-29
M19-MEL = system: M19-MEL
ACHN = system: ACHN
K562 = system: K562
SNB-75 = system: SNB-75
UACC-257 = system: UACC-257
MOLT-4 = system: MOLT-4
COLO 205 = system: COLO 205
RPMI-8226 = system: RPMI-8226
SW-620 = system: SW-620
UO-31 = system: UO-31
Hs-578T = system: Hs-578T
PC-3 = system: PC-3
SR = system: SR
BT-549 = system: BT-549
MDA-N = system: MDA-N
MDA-MB-435 = system: MDA-MB-435

Structure (SMILES)	GI50 (OVCAR-3)	GI50 (SF-539)	GI50 (OVCAR-8)	GI50 (HT-29)	GI50 (M19-MEL)	GI50 (ACHN)	GI50 (K562)	GI50 (SNB-75)	GI50 (UACC-257)	GI50 (MOLT-4)	GI50 (COLO 205)	GI50 (RPMI-8226)	GI50 (SW-620)	GI50 (UO-31)	GI50 (Hs-578T)	GI50 (PC-3)	GI50 (SR)	GI50 (BT-549)	GI50 (MDA-N)	GI50 (MDA-MB-435)
CC(C)=CC(=O)C/C(=N\NC(N)=S)C(=O)Nc1ccc(Cl)cc1	> 100 µM (inactive)	> 100 µM (inactive)	> 100 µM (inactive)	> 100 µM (inactive)	> 100 µM (inactive)	> 100 µM (inactive)	> 100 µM (inactive)	79.8 µM (inactive)	> 100 µM (inactive)	> 100 µM (inactive)	> 100 µM (inactive)	> 100 µM (inactive)	> 100 µM (inactive)	> 100 µM (inactive)	–	–	–	–	–	–
CC1OC2/C=C\CC(O)C(C)(C)C3CCC(C)C4(O3)O[B-]35OC(C(=O)OC1C2)C1(OC(CCC1C)C(C)(C)C(O)C/C=C\C1CC(OC(=O)C4O3)C(C)O1)O5 (stereo unspecified)	1.89 µM (inactive)	2.42 µM (inactive)	3.13 µM (inactive)	2.75 µM (inactive)	–	3.45 µM (inactive)	7.46 µM (inactive)	0.39 µM (active)	1.77 µM (inactive)	1.01 µM (active)	2.03 µM (inactive)	1.63 µM (inactive)	2.94 µM (inactive)	17.7 µM (inactive)	1.54 µM (inactive)	2.77 µM (inactive)	1.78 µM (inactive)	2.54 µM (inactive)	3.15 µM (inactive)	2.54 µM (inactive)
NS(=O)(=O)c1ccc(/N=N/c2cccnc2O)cc1	> 100 µM (inactive)	> 100 µM (inactive)	> 100 µM (inactive)	> 100 µM (inactive)	–	> 100 µM (inactive)	> 100 µM (inactive)	> 100 µM (inactive)	> 100 µM (inactive)	> 100 µM (inactive)	> 100 µM (inactive)	> 100 µM (inactive)	> 100 µM (inactive)	> 100 µM (inactive)	> 100 µM (inactive)	> 100 µM (inactive)	> 100 µM (inactive)	> 100 µM (inactive)	> 100 µM (inactive)	> 100 µM (inactive)
O=c1ccc2cc(O)c(O)cc2o1 [ESCULETIN]	> 100 µM (inactive)	> 100 µM (inactive)	> 100 µM (inactive)	> 100 µM (inactive)	–	> 100 µM (inactive)	> 100 µM (inactive)	> 100 µM (inactive)	> 100 µM (inactive)	> 100 µM (inactive)	> 100 µM (inactive)	> 100 µM (inactive)	> 100 µM (inactive)	> 100 µM (inactive)	> 100 µM (inactive)	> 92.9 µM (inactive)	> 100 µM (inactive)	> 100 µM (inactive)	> 100 µM (inactive)	> 100 µM (inactive)
